Data: patent US3944498A, “Germicidal detergent containing a thienyliodonium salt” (The Dow Chemical Company, priority 1973, dated 1976)

Legend:
[1] = system: Sprague-Dawley (Cox strain) rats; assay: Oral median lethal dose in Sprague-Dawley (Cox strain) rats; type: in vivo; details: 708 mg/kg oral, 24 Hours
[2] = system: organisms of mold and mildew; assay: Protection of latex paint on wood panels from mold and mildew, tropical chamber; details: 0.3 percent by weight in latex paint, two months, 95 percent RH, 82°F
Procedure: 4-Chlorophenyl-2-thienyliodonium chloride is employed in a paint composition to protect the paint from attack and subsequent degradation by the organisms of mold and mildew. In such operations, the salt compound is dispersed and incorporated in the latex paint in the amount of 0.3 percent by weight of the ultimate paint composition.
The paint employed in these operations is prepared by intimately blending a pigment dispersion with a letdown including a synthetic latex comprising an interpolymer of ethyl acrylate, methyl methacrylate, acrylic acid and methacrylic acid. The paint has the following composition.
Wood panels are then painted with the modified compositions as well as with the unmodified paint. The panels are dried and thereafter exposed two months in a tropical chamber at a relative humidity of 95 percent and a temperature of 82°F. (28°C.). Following this period, the wood panels are examined to ascertain what control of […] is obtained.

[3] = system: S. aureus; assay: Nutrient agar growth test, S. aureus (Example 3); type: cell-based; details: 0.001 percent by weight, 2 days, 35°C
From the text: The 4-chlorophenyl-2-thienyliodonium chloride, trifluoroacetate and trichloroacetate salts are dispersed in melted nutrient agar to produce culture media containing 0.001 percent by weight of one of the salt compounds. Such melted media are then poured into petri dishes and the solidified surface in each dish inoculated with a 24-hour broth culture, one of the organisms S. aureus and S. typhosa. In a check operation, petri dishes containing unmodified nutrient agar are each individually inoculated in the same manner with the named organisms. After two days' incubation at 35°C. the agar surface in each dish is examined for microbial growth. […] At the time of these observations the check dishes are found to support a heavy growth of the two named organisms.

[4] = system: A. aerogenes; assay: Agar plate kill test with Ivory soap, A. aerogenes; type: cell-based; details: Klebsiella aerogenes, 48 h, read-out: Percent Kill of A. aerogenes
Procedure: (§1) Phenyl-2-thienyliodonium chloride, 2,2'-bisthienyliodonium chloride, and, for comparative purposes, diphenyliodonium chloride are individually dispersed in Ivory soap to provide concentrates containing 1 part by weight of iodonium salt to 50 parts by weight of soap. The soap concentrates are serially dispersed and serially diluted with liquid nutrient agar at 42°C. to prepare culture media containing various concentrations of one of the iodonium salts. The culture media are uniformly inoculated with S. aureus and plated in petri dishes. The inoculation is carried out from broth cultures of the named organism containing about 5×10^8 organisms per milliliter in the proportion of one-tenth milliliter of bacterial culture per 20 milliliters of cultur medium containing each test compound. In a check operation, nutrient agar containing the same amount of Ivory soap is similarly inoculated with the same organism. After two days' incubation at 37°C., the plates are examined for microbial growth.
The procedure described above is repeated with varying concentrations of 4-chlorophenyl-2-thienyliodonium chloride, 3,4-dichlorophenyl-2-thienyliodonium chloride, and for comparative purposes bis(4-chlorophenyl)iodonium chloride, phenyl-4-chlorophenyliodonium chloride and bis(2,4-dichlorophenyl)iodoniumchloride in a series of tests wherein the culture media are inoculated individually with the organism A. aerogenes.
The procedure described above is once again repeated with each of 2,2'-bisthienyliodonium chloride, phenyl-2-thienyliodonium chloride, 4-bromophenyl-2-thienyliodonium chloride, bis(4-bromophenyl)iodonium chloride and bis(4-bromophenyl)iodonium bromide in a series of tests wherein the culture media are inoculated individually with the organism A. aerogenes.

[5] = system: S. typhosa; assay: Agar plate kill test with Ivory soap, S. typhosa; type: cell-based; details: 48 h; 1 p.p.m., Ivory soap; read-out: Percent Kill of S. Typhosa
Procedure: as §1
The procedure described above is again repeated in a series of tests wherein the culture media are inoculated individually with the organism S. typhosa and wherein the culture media contain varying concentrations of one of the iodonium salts, as set forth in following Table II.

[6] = Oral median lethal dose in Sprague-Dawley (Cox strain) rats; type: in vivo; details: rat, in vivo, po; for LD50: 7 and 14 days
Procedure: (§2) The oral median lethal dose (LD50) of ClPhThICl was also determined in Sprague-Dawley (Cox strain) rats within a weight range of 93 to 118 grams. Five groups of rats, each consisting of 10 males and 10 females, were given the compound in an aqueous 0.5 percent METHOCEL hydroxypropyl methylcellulose (4000 cps.) suspension at a concentration of 300 mg/ml. The compound was administered as a single oral dose at 0.2 logarithmic dose intervals (709, 1120, 1780, 2820, 4450 mg/kg), and the following mortality experience was noted:
(§3) The percent of total mortalities occurring was 53.9, 79.3, 85.7 and 93.6 at 6, 24, 48 and 72 hours post-treatment, respectively. The last death occurred between 72 and 96 hours post-treatment in male rats in the 1780 and 4450 mg/kg groups.

[7] = system: Sprague-Dawley (Cox strain) rats; assay: as above; type: in vivo
Procedure: as §2, §3

In the case of Clc1ccc([I+]c2cccs2)cc1.[Cl-] [4-Chlorophenyl-2-thienyliodonium chloride], the “No. Dead” value ([1]; females) is reported as 0/10, the “No. Dead” value ([1]; males) is reported as 1/10 and the “control of growth of mold and mildew on painted panels” value [2] is reported as “complete control of the growth of the organisms of mold and mildew”. The “microbial growth on agar surface” value [3] was “free of microbial growth”, the killing at 1 ppm [4] was 100% and the killing at 1 ppm [5] was 100%. For the same compound, the LD50 ([6]; female rats, 95% confidence limits 785-1540 mg/kg) was 1100 mg/kg, the LD50 ([6]; male rats, 95% confidence limits 1171-2296 mg/kg) was 1640 mg/kg and the LD50 at 24 h ([6]; female rats, 95% confidence limits 1230-2080 mg/kg) was 1600 mg/kg. For the same compound, the LD50 at 24 h ([6]; male rats, 95% confidence limits 1241-2610 mg/kg) was 1800 mg/kg, the “No. Dead” value ([7]; 708 mg/kg oral, 7 Days, females) was 0/10 and the “No. Dead” value ([7]; 708 mg/kg oral, 7 Days, males) was 1/10. For the same compound, the “No. Dead” value ([7]; 708 mg/kg oral, 14 Days, females) was 0/10, the “No. Dead” value ([7]; 708 mg/kg oral, 14 Days, males) was 1/10 and the “No. Dead” value ([7]; 1120 mg/kg oral, 7 Days, females) was 6/10. The “No. Dead” value ([7]; 1120 mg/kg oral, 7 Days, males) was 2/10, the “No. Dead” value ([7]; 1120 mg/kg oral, 14 Days, females) was 6/10 and the “No. Dead” value ([7]; 1120 mg/kg oral, 14 Days, males) was 2/10. For the same compound, the “No. Dead” value ([7]; 1120 mg/kg oral, 24 Hours, females) was 2/10, the “No. Dead” value ([7]; 1120 mg/kg oral, 24 Hours, males) was 1/10 and the “No. Dead” value ([7]; 1780 mg/kg oral, 7 Days, females) was 7/10. The “No. Dead” value ([7]; 1780 mg/kg oral, 7 Days, males) was 9/10, the “No. Dead” value ([7]; 1780 mg/kg oral, 14 Days, females) was 7/10 and the “No. Dead” value ([7]; 1780 mg/kg oral, 14 Days, males) was 9/10. The “No. Dead” value ([7]; 1780 mg/kg oral, 24 Hours, females) was 6/10, the “No. Dead” value ([7]; 1780 mg/kg oral, 24 Hours, males) was 4/10 and the “No. Dead” value ([7]; 2820 mg/kg oral, 7 Days, females) was 10/10. The “No. Dead” value ([7]; 2820 mg/kg oral, 7 Days, males) was 8/10, the “No. Dead” value ([7]; 2820 mg/kg oral, 14 Days, females) was 10/10 and the “No. Dead” value ([7]; 2820 mg/kg oral, 14 Days, males) was 8/10. For the same compound, the “No. Dead” value ([7]; 2820 mg/kg oral, 24 Hours, females) was 9/10, the “No. Dead” value ([7]; 2820 mg/kg oral, 24 Hours, males) was 8/10 and the “No. Dead” value ([7]; 4450 mg/kg oral, 7 Days, females) was 10/10. For the same compound, the “No. Dead” value ([7]; 4450 mg/kg oral, 7 Days, males) was 10/10, the “No. Dead” value ([7]; 4450 mg/kg oral, 14 Days, females) was 10/10 and the “No. Dead” value ([7]; 4450 mg/kg oral, 14 Days, males) was 10/10. The “No. Dead” value ([7]; 4450 mg/kg oral, 24 Hours, females) was 10/10, the “No. Dead” value ([7]; 4450 mg/kg oral, 24 Hours, males) was 9/10 and the “percent of total mortalities occurring” value ([7]; 6 hours post-treatment) was 53.9%. For the same compound, the “percent of total mortalities occurring” value ([7]; 24 hours post-treatment) was 79.3%, the “percent of total mortalities occurring” value ([7]; 48 hours post-treatment) was 85.7% and the “percent of total mortalities occurring” value ([7]; 72 hours post-treatment) was 93.6%.
